According to patent publication US5120711A, “Synergistically active veterinary compositions and process for preparing same” (EGIS Gyogyszergyar, priority 1988, dated 1992):
Positions of bridges follow the written chain, without caps; N, C: chain ends. Non-standard residues stand in square brackets, D forms with d. Residues, ends and D or L forms follow the SMILES beside them. *: point of attachment. Octanoyl(6-Me) = CCC(C)CCCCC(=O)*; Dab = NCC[CH](N)C(=O)O

Legend:
[1] = tested on: Escherichia coli 17; test: microbe, parasite or virus in culture; settings: for MIC: Escherichia coli, 17, read-out: MIC values for microorganism D (Escherichia coli 17)
Method: (§1) The minimum inhibitory concentrations (MIC values) of the above compounds and their two-component combinations of 1:1 ratio by weight against the following microorganisms arising from mastitis and metritis processes of cattle were tested by using the serial dilution method in a phenol red-glucose broth medium (manufactured by DIFCO) or, by using a Sabouraud's broth medium, respectively in the cases of fungal strains.
(§2) Bacterial strains were cultivated at 37° C. whilst the fungal strain (Candida albicans) was propagated at 26° C.

[2] = tested on: Staphylococcus aureus; test: microbe, parasite or virus in culture; settings: for MIC: Staphylococcus aureus, read-out: MIC values for microorganism A (Staphylococcus aureus)
Method: as §1, §2

[3] = tested on: Escherichia coli 494; test: microbe, parasite or virus in culture; settings: for MIC: Escherichia coli, 494, read-out: MIC values for microorganism C (Escherichia coli 494)
Method: as §1, §2

[4] = tested on: Candida albicans; test: MIC, serial dilution in Sabouraud's broth; assay type: cell-based; settings: for MIC: Candida albicans, read-out: MIC values for microorganism G (Candida albicans)
Method: as §1, §2

[5] = tested on: Campylobacter jejuni; test: MIC in semiliquid thiol culture medium; assay type: cell-based; settings: bactericidal, complete inhibition of growth, 37° C.; for MIC: Campylobacter jejuni, read-out: MIC values for microorganism P (Campylobacter jejuni)
Method: as §1
(§3) Campylobacter strains were tested in a semiliquid thiol culture medium (manufactured by DIFCO). Bacteroides fragilis and Fusobacterium necrophorum strains were examined by using the agar dilution method on bloody agar containing also tryptose.
as §2

[6] = tested on: Campylobacter fetus; test: MIC in semiliquid thiol culture medium; assay type: cell-based; settings: bactericidal, complete inhibition of growth, 37° C.; for MIC: Campylobacter fetus, read-out: MIC values for microorganism O (Campylobacter fetus)
Method: as §1, §3, §2

[7] = tested on: Fusobacterium necrophorum; test: MIC, agar dilution method on bloody agar; assay type: cell-based; settings: agar dilution method on bloody agar containing tryptose, 37° C.; for MIC: Fusobacterium necrophorum, read-out: MIC values for microorganism S (Fusobacterium necrophorum)
Method: as §1
S--Fusobacterium necrophorum
as §3, §2

[8] = tested on: Pseudomonas aeruginosa; test: MIC, serial dilution in phenol red-glucose broth; assay type: cell-based; settings: bactericidal, complete inhibition of growth, 37° C.; for MIC: Pseudomonas aeruginosa, read-out: MIC values for microorganism F (Pseudomonas aeruginosa)
Method: as §1
F--Pseudomonas aeruginosa
as §2

[9] = tested on: Bacteroides fragilis; test: MIC, agar dilution method on bloody agar; assay type: cell-based; settings: agar dilution method on bloody agar containing tryptose, 37° C.; for MIC: Bacteroides fragilis, read-out: MIC values for microorganism R (Bacteroides fragilis)
Method: as §1, §3, §2

[10] = tested on: Streptococcus dysgalactiae; test: MIC, serial dilution in phenol red-glucose broth; assay type: cell-based; settings: bactericidal, complete inhibition of growth, 37° C.; for MIC: Streptococcus dysgalactiae, read-out: MIC values for microorganism I (Streptococcus dysgalactiae)
Method: as §1
I--Streptococcus dysgalactiae
as §2

[11] = tested on: Salmonella typhimurium; test: MIC, serial dilution in phenol red-glucose broth; assay type: cell-based; settings: bactericidal, complete inhibition of growth, 37° C.; for MIC: Salmonella enterica, TYPHIMURIUM, read-out: MIC values for microorganism N (Salmonella typhimurium)
Method: as §1
N--Salmonella typhimurium
as §2

[12] = tested on: Streptococcus zooepidemicus; test: MIC, serial dilution in phenol red-glucose broth; assay type: cell-based; settings: bactericidal, complete inhibition of growth, 37° C.; for MIC: Streptococcus equi, read-out: MIC values for microorganism B (Streptococcus zooepidemicus)
Method: as §1
B--Streptococcus zooepidemicus
as §2

[13] = tested on: Listeria monocytogenes; test: MIC, serial dilution in phenol red-glucose broth; assay type: cell-based; settings: bactericidal, complete inhibition of growth, 37° C.; for MIC: Listeria monocytogenes, read-out: MIC values for microorganism L (Listeria monocytogenes)
Method: as §1
L--Listeria monocytogenes
as §2

[14] = tested on: Mycoplasma bovis; test: MIC, serial dilution in phenol red-glucose broth; assay type: cell-based; settings: bactericidal, complete inhibition of growth, 37° C.; for MIC: Mycoplasmopsis bovis, read-out: MIC values for microorganism T (Mycoplasma bovis)
Method: as §1
Bacterial strains were cultivated at 37° C. whilst the fungal strain (Candida albicans) was propagated at 26° C. The minimum inhibitory concentrations (MIC values) showing a bactericidal effect, i.e. complete inhibition of the growth of microorganisms whereby the media inoculated remained sterile, are summarized in Table 1.

[15] = tested on: Streptococcus agalactiae; test: MIC, serial dilution in phenol red-glucose broth; assay type: cell-based; settings: bactericidal, complete inhibition of growth, 37° C.; for MIC: Streptococcus agalactiae, read-out: MIC values for microorganism H (Streptococcus agalactiae)
Method: as §1
H--Streptococcus agalactiae
as §2

[16] = tested on: Aspergillus fumigatus; test: MIC, serial dilution in Sabouraud's broth; assay type: cell-based; settings: complete inhibition of growth; for MIC: Aspergillus fumigatus, read-out: MIC values for microorganism Z (Aspergillus fumigatus)
Method: as §1
Z--Aspergillus fumigatus.
as §2

[17] = tested on: Corynebacterium pyogenes; test: MIC, serial dilution in phenol red-glucose broth; assay type: cell-based; settings: bactericidal, complete inhibition of growth, 37° C.; for MIC: Corynebacterium pyogenes, read-out: MIC values for microorganism M (Corynebacterium pyogenes)
Method: as §1
M--Corynebacterium pyogenes
as §2

[18] = tested on: Streptococcus uberis; test: MIC, serial dilution in phenol red-glucose broth; assay type: cell-based; settings: bactericidal, complete inhibition of growth, 37° C.; for MIC: Streptococcus uberis, read-out: MIC values for microorganism J (Streptococcus uberis)
Method: as §1, §2

[19] = tested on: Klebsiella pneumoniae; test: MIC, serial dilution in phenol red-glucose broth; assay type: cell-based; settings: bactericidal, complete inhibition of growth, 37° C.; for MIC: Klebsiella pneumoniae, read-out: MIC values for microorganism E (Klebsiella pneumoniae)
Method: as §1, §2

[20] = tested on: Mycoplasma canadense; test: MIC, serial dilution in phenol red-glucose broth; assay type: cell-based; settings: bactericidal, complete inhibition of growth, 37° C.; for MIC: Mycoplasma, read-out: MIC values for microorganism V (Mycoplasma canadense)
Method: as §1, §2

[21] = tested on: Mycoplasma bovirhinis; test: MIC, serial dilution in phenol red-glucose broth; assay type: cell-based; settings: bactericidal, complete inhibition of growth, 37° C.; for MIC: Mycoplasma, read-out: MIC values for microorganism U (Mycoplasma bovirhinis)
Method: as §1, §2

[22] = tested on: Streptococcus faecalis; test: MIC, serial dilution in phenol red-glucose broth; assay type: cell-based; settings: bactericidal, complete inhibition of growth, 37° C.; for MIC: Enterococcus faecalis, read-out: MIC values for microorganism K (Streptococcus faecalis)
Method: as §1
K--Streptococcus faecalis
as §2

[23] = bactericidal, complete inhibition of growth, phenol red-glucose broth, 37° C.
[24] = complete inhibition of growth, Sabouraud's broth, 26° C.

CCC(C)CCCCC(=O)NC(CCN)C(=O)NC(C(=O)NC(CCN)C(=O)NC1CCNC(=O)C(C(C)O)NC(=O)C(CCN)NC(=O)C(CCN)NC(=O)C(CC(C)C)NC(=O)C(Cc2ccccc2)NC(=O)C(CCN)NC1=O)C(C)O (stereo not drawn) [Polymyxin B, 6,9,18-tris(2-aminoethyl)-15-benzyl-21-[2,8-bis(2-aminoethyl)-5-(1-hydroxyethyl)-15-methyl-4,7,10-trioxo-3,6,9-triazaheptadecanamido]-3-(1-hydroxyethyl)-12-isobutyl-1,4,7,10,13,16,19-heptaazacyclotricosane-2,5,8,11,14,17,20-heptaone] ({Octanoyl(6-Me)}-[Dab]T[Dab][Dab][Dab]FL[Dab][Dab]T; lactam 4-C; configuration not given here)
MIC values for microorganism D (Escherichia coli 17) [1, 23]: 0.5 µg/mL
MIC values for microorganism A (Staphylococcus aureus) [2, 23]: 50 µg/mL
MIC values for microorganism C (Escherichia coli 494) [3, 23]: 0.5 µg/mL
MIC values for microorganism G (Candida albicans) [4, 24]: 200 µg/mL
fungicidal action, in words ([4]; substance alone): practically no fungicidal action
MIC values for microorganism P (Campylobacter jejuni) [5]: 5 µg/mL
MIC values for microorganism O (Campylobacter fetus) [6]: 0.5 µg/mL
MIC values for microorganism S (Fusobacterium necrophorum) [7]: 200 µg/mL
MIC values for microorganism F (Pseudomonas aeruginosa) [8]: 0.5 µg/mL
MIC values for microorganism R (Bacteroides fragilis) [9]: 200 µg/mL
MIC values for microorganism I (Streptococcus dysgalactiae) [10]: 5 µg/mL
MIC values for microorganism N (Salmonella typhimurium) [11]: 1 µg/mL
MIC values for microorganism B (Streptococcus zooepidemicus) [12]: 5 µg/mL
MIC values for microorganism L (Listeria monocytogenes) [13]: 5 µg/mL
MIC values for microorganism T (Mycoplasma bovis) [14]: 32 µg/mL
MIC values for microorganism H (Streptococcus agalactiae) [15]: 5 µg/mL
MIC values for microorganism Z (Aspergillus fumigatus) [16]: 200 µg/mL
MIC values for microorganism M (Corynebacterium pyogenes) [17]: 200 µg/mL
MIC values for microorganism J (Streptococcus uberis) [18]: 10 µg/mL
MIC values for microorganism E (Klebsiella pneumoniae) [19]: 5 µg/mL
MIC values for microorganism V (Mycoplasma canadense) [20]: 32 µg/mL
MIC values for microorganism U (Mycoplasma bovirhinis) [21]: 32 µg/mL
MIC values for microorganism K (Streptococcus faecalis) [22]: 200 µg/mL

Clc1ccccc1C(c1ccccc1)(c1ccccc1)n1ccnc1 [Clotrimazole, 1-(2-chlorophenyl)-diphenylmethyl-1H-imidazole]
MIC [1]: > 200 µg/mL
effect on Escherichia coli strains, in words ([1]; substance alone): very weak effect
MIC [2]: 0.5 µg/mL
MIC [3]: > 200 µg/mL
effect on Escherichia coli strains, in words ([3]; substance alone): very weak effect
MIC [4, 24]: 5 µg/mL
MIC [5]: 100 µg/mL
MIC [6]: 100 µg/mL
MIC [7]: 100 µg/mL
MIC [8]: > 200 µg/mL
MIC [9]: 200 µg/mL
MIC [10]: 0.5 µg/mL
MIC [11]: 200 µg/mL
MIC [12]: 0.5 µg/mL
MIC [13]: 5 µg/mL
MIC [14]: 32 µg/mL
MIC [15]: 5 µg/mL
MIC [16]: 1 µg/mL
MIC [17]: 25 µg/mL
MIC [18]: 0.5 µg/mL
MIC [19]: > 200 µg/mL
MIC [20]: 32 µg/mL
MIC [21]: 32 µg/mL
MIC [22]: 5 µg/mL

Cc1ccc2c(Cl)cc(Cl)c(O)c2n1 [Chlorquinaldol, 2-methyl-5,7-dichloro-8-hydroxyquinoline]
MIC [1]: 5 µg/mL
MIC [2]: 5 µg/mL
MIC [3]: 5 µg/mL
MIC [4, 24]: 1 µg/mL
MIC [5]: 5 µg/mL
MIC [6]: 10 µg/mL
MIC [7]: 3 µg/mL
MIC [8]: 200 µg/mL
MIC [9]: 1.5 µg/mL
MIC [10]: 0.5 µg/mL
MIC [11]: 200 µg/mL
MIC [12]: 0.5 µg/mL
MIC [13]: 1 µg/mL
MIC [14]: 32 µg/mL
MIC [15]: 0.5 µg/mL
MIC [16]: 25 µg/mL
MIC [17]: 5 µg/mL
MIC [18]: 0.5 µg/mL
MIC [19]: 200 µg/mL
MIC [20]: 8 µg/mL
MIC [21]: 4 µg/mL
MIC [22]: 5 µg/mL
